{"source": "ChEMBL document CHEMBL1201862", "about": "“PubChem BioAssay data set” (2004)", "assay_in_all_cases": "growth of human tumour cells (NCI), 48 h", "key": {"SK-OV-3": {"test_system": "SK-OV-3"}, "HCT-15": {"test_system": "HCT-15"}, "NCI-H226": {"test_system": "NCI-H226"}, "KM12": {"test_system": "KM12"}, "NCI/ADR-RES": {"test_system": "NCI/ADR-RES"}, "RPMI-8226": {"test_system": "RPMI-8226"}, "SK-MEL-2": {"test_system": "SK-MEL-2"}, "CCRF-CEM": {"test_system": "CCRF-CEM"}, "HOP-92": {"test_system": "HOP-92"}, "T47D": {"test_system": "T47D"}, "TK-10": {"test_system": "TK-10"}, "MDA-MB-231": {"test_system": "MDA-MB-231"}, "Hs-578T": {"test_system": "Hs-578T"}, "SF-268": {"test_system": "SF-268"}, "SN12C": {"test_system": "SN12C"}, "SNB-75": {"test_system": "SNB-75"}, "SR": {"test_system": "SR"}, "DU-145": {"test_system": "DU-145"}, "MOLT-4": {"test_system": "MOLT-4"}, "M14": {"test_system": "M14"}, "MDA-MB-435": {"test_system": "MDA-MB-435"}, "OVCAR-5": {"test_system": "OVCAR-5"}, "UACC-257": {"test_system": "UACC-257"}, "ACHN": {"test_system": "ACHN"}, "SK-MEL-5": {"test_system": "SK-MEL-5"}, "LOX IMVI": {"test_system": "LOX IMVI"}, "MCF7": {"test_system": "MCF7"}, "OVCAR-3": {"test_system": "OVCAR-3"}, "MDA-N": {"test_system": "MDA-N"}, "U-251": {"test_system": "U-251"}, "HCT-116": {"test_system": "HCT-116"}, "EKVX": {"test_system": "EKVX"}, "BT-549": {"test_system": "BT-549"}, "OVCAR-8": {"test_system": "OVCAR-8"}, "HT-29": {"test_system": "HT-29"}, "K562": {"test_system": "K562"}, "NCI-H23": {"test_system": "NCI-H23"}, "SNB-19": {"test_system": "SNB-19"}, "Malme-3M": {"test_system": "Malme-3M"}, "UACC-62": {"test_system": "UACC-62"}, "UO-31": {"test_system": "UO-31"}, "IGROV-1": {"test_system": "IGROV-1"}, "HL-60": {"test_system": "HL-60"}, "HCC 2998": {"test_system": "HCC 2998"}, "SF-539": {"test_system": "SF-539"}, "A498": {"test_system": "A498"}, "RXF 393": {"test_system": "RXF 393"}, "COLO 205": {"test_system": "COLO 205"}, "HOP-62": {"test_system": "HOP-62"}, "NCI-H522": {"test_system": "NCI-H522"}, "A549": {"test_system": "A549"}, "SF-295": {"test_system": "SF-295"}, "786-0": {"test_system": "786-0"}, "SW-620": {"test_system": "SW-620"}, "OVCAR-4": {"test_system": "OVCAR-4"}}, "note": "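1) Cells in 96-well plates. 2) Compound, 48 h, 5 concentrations. 3) Linear interpolation between surrounding doses. 4) Unreached endpoint = highest concentration. GI50 is the concentration that inhibits growth by half.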 Activity calls are given as the source filed them. Rule as the data show it: active = GI50 up to about 1.1 µM and inactive = higher."}
{"smiles": "CCCCc1ccc(Nc2nc(O)c3ncn(COCCO)c3n2)cc1", "values": [{"measurement": "GI50", "setting": "SK-OV-3", "value": "> 100 µM (inactive)"}, {"measurement": "GI50", "setting": "HCT-15", "value": "> 100", "unit": "µM"}, {"measurement": "GI50", "setting": "NCI-H226", "value": "> 100 µM (inactive)"}, {"measurement": "GI50", "setting": "KM12", "value": "> 100 µM (inactive)"}, {"measurement": "GI50", "setting": "NCI/ADR-RES", "value": "> 100 µM (inactive)"}, {"measurement": "GI50", "setting": "RPMI-8226", "value": "43.9 µM (inactive)"}, {"measurement": "GI50", "setting": "SK-MEL-2", "value": "> 100 µM (inactive)"}, {"measurement": "GI50", "setting": "CCRF-CEM", "value": "> 100 µM (inactive)"}, {"measurement": "GI50", "setting": "HOP-92", "value": "> 100 µM (inactive)"}, {"measurement": "GI50", "setting": "T47D", "value": "73.1 µM (inactive)"}, {"measurement": "GI50", "setting": "TK-10", "value": "> 100 µM (inactive)"}, {"measurement": "GI50", "setting": "MDA-MB-231", "value": "> 100 µM (inactive)"}, {"measurement": "GI50", "setting": "Hs-578T", "value": "> 100 µM (inactive)"}, {"measurement": "GI50", "setting": "SF-268", "value": "> 100 µM (inactive)"}, {"measurement": "GI50", "setting": "SN12C", "value": "> 100 µM (inactive)"}, {"measurement": "GI50", "setting": "SNB-75", "value": "> 100 µM (inactive)"}, {"measurement": "GI50", "setting": "SR", "value": "88.3 µM (inactive)"}, {"measurement": "GI50", "setting": "DU-145", "value": "> 100 µM (inactive)"}, {"measurement": "GI50", "setting": "MOLT-4", "value": "56 µM (inactive)"}, {"measurement": "GI50", "setting": "M14", "value": "> 100 µM (inactive)"}, {"measurement": "GI50", "setting": "MDA-MB-435", "value": "> 100 µM (inactive)"}, {"measurement": "GI50", "setting": "OVCAR-5", "value": "> 100 µM (inactive)"}, {"measurement": "GI50", "setting": "UACC-257", "value": "> 100 µM (inactive)"}, {"measurement": "GI50", "setting": "ACHN", "value": "> 100 µM (inactive)"}, {"measurement": "GI50", "setting": "SK-MEL-5", "value": "> 100 µM (inactive)"}, {"measurement": "GI50", "setting": "LOX IMVI", "value": "> 100 µM (inactive)"}, {"measurement": "GI50", "setting": "MCF7", "value": "> 100 µM (inactive)"}, {"measurement": "GI50", "setting": "OVCAR-3", "value": "> 100 µM (inactive)"}, {"measurement": "GI50", "setting": "MDA-N", "value": "> 100 µM (inactive)"}, {"measurement": "GI50", "setting": "U-251", "value": "57.4 µM (inactive)"}, {"measurement": "GI50", "setting": "HCT-116", "value": "> 100 µM (inactive)"}, {"measurement": "GI50", "setting": "EKVX", "value": "> 100 µM (inactive)"}, {"measurement": "GI50", "setting": "BT-549", "value": "> 100 µM (inactive)"}, {"measurement": "GI50", "setting": "OVCAR-8", "value": "> 100 µM (inactive)"}, {"measurement": "GI50", "setting": "HT-29", "value": "> 100 µM (inactive)"}, {"measurement": "GI50", "setting": "K562", "value": "29.8 µM (inactive)"}, {"measurement": "GI50", "setting": "NCI-H23", "value": "93.8 µM (inactive)"}, {"measurement": "GI50", "setting": "SNB-19", "value": "75.7 µM (inactive)"}, {"measurement": "GI50", "setting": "Malme-3M", "value": "> 100 µM (inactive)"}, {"measurement": "GI50", "setting": "UACC-62", "value": "> 100 µM (inactive)"}, {"measurement": "GI50", "setting": "UO-31", "value": "> 100 µM (inactive)"}, {"measurement": "GI50", "setting": "IGROV-1", "value": "> 100 µM (inactive)"}, {"measurement": "GI50", "setting": "HL-60", "value": "> 100 µM (inactive)"}, {"measurement": "GI50", "setting": "HCC 2998", "value": "> 100 µM (inactive)"}, {"measurement": "GI50", "setting": "SF-539", "value": "> 100 µM (inactive)"}, {"measurement": "GI50", "setting": "A498", "value": "> 100 µM (inactive)"}, {"measurement": "GI50", "setting": "RXF 393", "value": "> 100 µM (inactive)"}, {"measurement": "GI50", "setting": "COLO 205", "value": "> 100 µM (inactive)"}, {"measurement": "GI50", "setting": "HOP-62", "value": "> 100 µM (inactive)"}, {"measurement": "GI50", "setting": "NCI-H522", "value": "> 100 µM (inactive)"}, {"measurement": "GI50", "setting": "A549", "value": "> 100 µM (inactive)"}, {"measurement": "GI50", "setting": "SF-295", "value": "> 100 µM (inactive)"}, {"measurement": "GI50", "setting": "786-0", "value": "44.1 µM (inactive)"}, {"measurement": "GI50", "setting": "SW-620", "value": "> 100 µM (inactive)"}, {"measurement": "GI50", "setting": "OVCAR-4", "value": "> 100 µM (inactive)"}]}
